The subject of one series is human osteoclasts. The series can be described thus: Human osteoclasts co-cultured with human multiple myeloma cells (8226-LUC). The series is classed as cell-based. The conditions noted are these: co-cultured with 8226-LUC.
The test system of series [1] is 8226-LUC human multiple myeloma cells. The series is described as follows: OFS-1 activation by multiple myeloma in humanized BLT mice. The conditions noted are these: humanized mice carrying 8226-LUC cells. The series is classed as in vivo. The procedure:
FIG. 9, panels a-c, illustrates OFS-1 activation by multiple myeloma in humanized mice. 8226-LUC human multiple myeloma cells were injected to humanized BLT mice.

Series [2] can be described thus: Adsorption on calcium phosphate substrates. The series is classed as physicochemical.
Series [3] deals with T1, Cathepsin K (Homo sapiens, UniProt P43235).
T1 construct: purchased Enzo Life Sciences
T1 sequence (P43235 115-329): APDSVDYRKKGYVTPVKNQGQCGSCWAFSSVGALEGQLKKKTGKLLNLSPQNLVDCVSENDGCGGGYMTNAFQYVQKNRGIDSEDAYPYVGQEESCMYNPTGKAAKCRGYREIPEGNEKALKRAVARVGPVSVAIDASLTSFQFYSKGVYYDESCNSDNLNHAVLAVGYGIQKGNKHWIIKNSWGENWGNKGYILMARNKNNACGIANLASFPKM
The series can be described thus: Enzyme studies: cleavage of the probe by activated cathepsin K, initial rates, Lineweaver-Burke plot. It counts as biochemical. The procedure:
Kinetic parameters Kcat and Km were determined from initial rates at 37° C. and pH 5.5 in a buffer consisting of 50 mM sodium acetate buffer with 2.5 mM EDTA, 1 mM DTT and 0.01% TRITON X-100®. Enzyme concentration was 2.5 nM, substrate concentration ranged from 0.0781 to 2.50 μM. Fluorescence measurements were done every 1 min using a Biotek Synergy H4 plate reader with black Corning 3720 96-well plates. Parameters were determined using a Lineweaver-Burke plot. Fluorescence calibration was obtained using compound 9a at concentrations between 0.00977 and 2.5 μM. Background fluorescence was estimated using intact 10a at concentrations ranging from 0.0781 to 2.50 μM.
Cathepsin K was prepared by activation of procathepsin K purchased from Enzo Life Sciences. Activation was carried out by adding […], pH 3.5 sodium acetate buffer in a 1:2 ratio to as-received proenzyme solution and leaving at 21° C. for 30 min before dilution with assay buffer. Solutions of activated enzyme were stored on ice and used within 10 min. Buffers were prepared in house according to concentrations provided by Enzo Life Sciences.

Series [4] has as its system monocyte-derived human osteoclasts. The series can be described thus: Osteoclasts cultured on calcium phosphate coated microwells preadsorbed with probe, fluorescence timelapse. It counts as cell-based. An excerpt: We attribute this to a lack of calcium phosphate for the probe to bind to. In several cases, osteoclasts can be seen migrating on the surface without completely dissolving the calcium phosphate and leaving a trail of enhanced fluorescence in their wake (see, e.g., FIG. 4). This is how the probe is presumed to function in vivo, by fluorescently labeling any regions exposed to osteoclast resorptive activity. […] Another phenomenon observed in all videos was a transient decrease in fluorescence within the boundaries of the osteoclast sealing zone, seen as rapidly moving dark areas around the cells (see, e.g., FIG. 5). This effect was expected and results from the pH sensitivity of carboxyfluorescein. The pH under an active osteoclast has been reported to be as low as 4.5 (Teitelbaum (2000) Science, 289(5484): 1504-1508). Carboxyfluorescein cyclizes to a nonfluorescent form when protonated and has a pKa of approximately 6.5 (Han & Burgess (2010) Chem. Rev. 110: 2709-2728; Massou et al. (2000) Biochem. Educ. 28:171-173). Thus fluorescent intensity is decreased. This is further evidence that the probe is exposed to the sub-osteoclast environment as intended. Another phenomenon observed in the timelapses was concentrated fluorescent intensity in cells themselves, both attached and detached from the substrate. […]

The next series relates to osteoclast activity. The series is described as follows: Fluorescence imaging of maxilla ex vivo in mice after tooth extraction. The conditions noted are these: young mice, 5 nMol/mouse. An excerpt:
FIG. 8, panels a-c, show White light (left) and fluorescence (right) images of mice after tooth extraction. Panel a) Vehicle control; Panel b) OFS-1 (5a) 5 nMol/mouse; Panel c) Positive control (4a) 5 nMol/mouse

The conditions of series [5]: cited from earlier work.
The target of series [6] is T1, Cathepsin K. Conditions: values found in literature; cited from earlier work.

Entries after “also recorded” stand apart in the source; their conditions may differ. Where two headings read alike, the source gives them in different places. *: point of attachment. pamidronate = 1-hydroxy-1,1-bisphosphonate, amide on Lys carboxyl, O=P(O)(O)C(O)(CCN*)P(=O)(O)O; BHQ‑1 = Black Hole Quencher-1; βAla = NCCC(=O)O

For orientation: Km means the concentration of substrate that gives half-maximal velocity. Consider “OFS-1: bone-targeted pamidronate probe with 5-FAM fluorophore and BHQ-1 quencher linked by cathepsin K peptide Gly-His-Pro-Gly-Gly-Pro-Gln-Gly ({BHQ‑1}-GHPGGPQG-{βAla-K(5-FAM)-pamidronate})”, for which, in the series on human osteoclasts, the “OFS-1 activation by osteoclasts in co-culture with multiple myeloma cells” value is reported as “significantly increased OFS-1 activation”. The “Probe activation / fluorescent signal at multiple myeloma engrafted sites” value in series [1] is “localized at the multiple myeloma (8226-LUC) engrafted site; also recorded: Strong activation”. For the same compound, in series [2], the “Adsorption on calcium phosphate substrates” value is given as “avidly adsorbed on calcium phosphate substrates; also recorded: found to adsorb on calcium phosphate substrates”. Further, in the series with Cathepsin K [3] (in solution at 37° C., pH 5.5), the Kcat is 0.2 ± 0.03 s⁻¹ and the Km stood at 1.7 ± 0.2 µM. Further, the “Cleavage/activation by cathepsin K” value with Cathepsin K [3] (purified cathepsin K) is reported as “cleaved by cathepsin K albeit at a slower rate; also recorded: activated by purified cathepsin K”. For the same compound, in series [4], the “Fluorescent signal in response to osteoclast resorptive activity” value was “give a fluorescent signal in response to resorptive activity”. For the same compound, the “Fluorescent signal in response to osteoclast resorptive activity” value in series [4] (listed as USC FRET-1) is “increased fluorescence around cells that were actively resorbing hydroxyapatite (HA)”. The “Fluorescent signal in maxilla ex vivo after tooth extraction” value in the series on osteoclast activity was “increased fluorescent signal in maxilla ex vivo; also recorded: enhanced signal in response to tooth extraction”.

As for `O=C(O)c1ccc2c(c1)C(=O)OC21c2ccc(O)cc2Oc2cc(O)ccc21` [Carboxyfluorescein, 5-carboxyfluorescein], in series [5], the pKa result was “approximately 6.5”.

Consider Abz-HPGGPQ-EDN2Ph, for which, at Cathepsin K [6], the “Kcat (literature value)” value is 0.5 ± 0.03 s⁻¹ and the Km was 1.2 ± 0.2 µM.

The record behind these values is patent US11219697B2, “Osteoadsorptive fluorogenic substrate of cathepsin k for imaging osteoclast activity and migration” (The Regents of the University of California, priority 2017, dated 2022).
